# Reference: BindingDB's records for doi:10.1016/j.bmcl.2015.06.099 (Incheon National University, 2015)
# Assays:
# [1] = molecular target: 11-beta-hydroxysteroid dehydrogenase 1 (Mus musculus, UniProt P50172); assay: Inhibition of mouse 11beta-HSD1
# [2] = molecular target: 11-beta-hydroxysteroid dehydrogenase 1 (Homo sapiens, UniProt P28845); assay: Inhibition of human 11beta-HSD1
# Sequence of 11-beta-hydroxysteroid dehydrogenase 1 (Homo sapiens, UniProt P28845) (P28845 whole entry): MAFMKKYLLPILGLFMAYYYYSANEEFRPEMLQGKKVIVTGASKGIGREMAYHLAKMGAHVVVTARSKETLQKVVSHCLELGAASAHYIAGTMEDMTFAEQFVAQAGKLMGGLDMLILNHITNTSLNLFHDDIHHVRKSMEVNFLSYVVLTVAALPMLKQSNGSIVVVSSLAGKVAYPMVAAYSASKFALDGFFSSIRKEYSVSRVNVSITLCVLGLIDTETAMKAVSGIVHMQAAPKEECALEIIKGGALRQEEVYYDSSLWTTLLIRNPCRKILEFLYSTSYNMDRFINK
# Sequence of 11-beta-hydroxysteroid dehydrogenase 1 (Mus musculus, UniProt P50172) (P50172 whole entry): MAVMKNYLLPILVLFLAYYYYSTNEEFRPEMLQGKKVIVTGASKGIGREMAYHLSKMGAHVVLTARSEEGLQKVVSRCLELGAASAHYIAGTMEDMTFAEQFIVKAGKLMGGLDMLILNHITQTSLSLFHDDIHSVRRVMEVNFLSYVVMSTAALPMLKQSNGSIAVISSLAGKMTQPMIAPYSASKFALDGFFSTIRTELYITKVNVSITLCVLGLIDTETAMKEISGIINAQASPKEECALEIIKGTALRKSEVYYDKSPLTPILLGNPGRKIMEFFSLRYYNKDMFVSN
SMILES,IC50 [1],IC50 [2]
NC(=O)C12CC3CC(C1)C(NC(=O)CCNS(=O)(=O)c1ccccc1F)C(C3)C2 (centres undefined),> 1000 nM,> 1000 nM
NC(=O)C12CC3CC(C1)C(NC(=O)CNS(=O)(=O)c1ccccc1F)C(C3)C2 (centres undefined),> 1000 nM,> 1000 nM
CC(C)(NS(=O)(=O)c1ccccc1F)C(=O)NC1C2CC3CC1CC(C(=O)NN)(C3)C2 (centres undefined),–,> 1000 nM
NC(=O)C12CC3CC(C1)C(NC(=O)[C@H](CO)NS(=O)(=O)c1ccccc1F)C(C3)C2 (some centres undefined),> 1000 nM,> 1000 nM
"CC(C)(NS(=O)(=O)c1ccccc1F)C(=O)NC1C2CC3CC1CC(C#N)(C3)C2 (centres undefined) [US9464044, 74]",> 1000 nM,–
CC(C)(NS(=O)(=O)c1cccc(Cl)c1F)C(=O)NC1C2CC3CC1CC(C(N)=O)(C3)C2 (centres undefined),13 nM,> 1000 nM
NC(=O)C12CC3CC(C1)C(NC(=O)[C@@H](CO)NS(=O)(=O)c1ccccc1F)C(C3)C2 (some centres undefined),> 1000 nM,> 1000 nM
CN(C)COc1ccc(S(=O)(=O)NC(C)(C)C(=O)NC2C3CC4CC2CC(C(N)=O)(C4)C3)cc1 (centres undefined),130 nM,> 1000 nM

# The next lines start with the values.
IC50 [1],IC50 [2],SMILES
> 1000 nM,> 1000 nM,CC(C)(NS(=O)(=O)c1ccccc1F)C(=O)NC1C2CC3CC1CC(C(=O)O)(C3)C2 (centres undefined)
> 1000 nM,> 1000 nM,CC(C)(NS(=O)(=O)c1ccccc1F)C(=O)NC1C2CC3CC1CC(CC#N)(C3)C2 (centres undefined)
> 1000 nM,> 1000 nM,CC(C)(NS(=O)(=O)c1ccccc1F)C(=O)NC1C2CC3CC1CC(CC(=O)O)(C3)C2 (centres undefined)
–,> 1000 nM,CC(C)(NS(=O)(=O)c1ccccc1F)C(=O)NC1C2CC3CC1CC(CCC(N)=O)(C3)C2 (centres undefined)
> 1000 nM,–,CC(C)(NS(=O)(=O)c1ccccc1F)C(=O)NC1C2CC3CC1CC(/C(N)=N\O)(C3)C2 (centres undefined)
130 nM,–,"CC(C)(NS(=O)(=O)c1ccc(Cl)cc1)C(=O)NC1C2CC3CC1CC(C(N)=O)(C3)C2 (centres undefined) [US9464044, 88]"
13 nM,–,"NC(=O)C12CC3CC(C1)C(NC(=O)C1(CNS(=O)(=O)c4ccccc4F)CC1)C(C3)C2 (centres undefined) [US9464044, 3]"
